Assay results published in patent publication US7074789B2, “Kinase inhibitors” (Amgen Inc., priority 1999, dated 2006).

Tests used:
Assay type in all cases: biochemical
Lck = biological target: T1, Lck (Homo sapiens, UniProt P06239); experiment: Kinase inhibition assay (33P transfer), Lck; conditions: Table 3; read-out: Lck-1
T1 construct: Kinases are expressed as either kinase domains or full length constructs; made in house
Summary of the method: (§1)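 Liquid scintillation counting of 33P on plate-bound synthetic substrates gives kinase activity. Plates are washed in 0.5% phosphoric acid first; kinases are tagged recombinant proteins from E. coli or baculovirus-infected High Five cells.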

Lyn = biological target: T2, Lyn (Homo sapiens, UniProt P07948); experiment: Kinase inhibition assay (33P transfer), Lyn; conditions: Table 6, Lyn-1 kinase inhibition class
T2 construct: Kinases are expressed as either kinase domains or full length constructs; made in house
Text: (§2) The inhibitor compounds described herein are screened in the following manner. Kinases suitable for use in the following protocol to determine kinase activity of the compounds described herein include, -but are not limited to: Lck, Lyn, Src, Fyn, Syk, Zap-70, Itk, Tec, Btk, EGFR, ErbB2, Kdr, Flt-1, Flt-3, Tek, c-Met, InsR, and AKT.
(§3) Kinases are expressed as either kinase domains or full length constructs fused to glutathione S-transferase (GST) or polyHistidine tagged fusion proteins in either E. colior Baculovirus-High Five expression systems. They are purified to near homogeneity by affinity chromatography essentially as previously described (Lehr et al., 1996; Gish et al., 1995). In some instances, kinases are co-expressed or mixed with purified or partially purified regulatory polypeptides prior to measurement of activity.
(§4) Kinase activity and inhibition are measured essentially by established protocols (Braunwalder et al., 1996). Briefly, The transfer of ^33PO4 from ATP to the synthetic substrates poly(Glu, Tyr) 4:1 or poly(Arg, Ser) 3:1 attached to the bioactive surface of microtiter plates serves as the basis to evaluate enzyme activity. After an incubation period, the amount of phosphate transferred is measured by first washing the plate with 0.5% phosphoric acid, adding liquid scintillant, and then counting in a liquid scintillation detector. The IC50 is determined by the concentration of compound that causes a 50% reduction in the amount of […] incorporated onto the substrate bound to the plate.

Src = biological target: T3, Src (Homo sapiens, UniProt P12931); experiment: Kinase inhibition assay (33P transfer), Src; conditions: Table 6, Src-1 kinase inhibition class
T3 construct: Kinases are expressed as either kinase domains or full length constructs; made in house
Text: as §2, §3, §4

Fyn = biological target: T4, Fyn (Homo sapiens, UniProt P06241); experiment: Kinase inhibition assay (33P transfer), Fyn; conditions: read-out: Fyn-1
T4 construct: Kinases are expressed as either kinase domains or full length constructs; made in house
Text: as §2, §3, §4

Zap-70 = biological target: T5, Zap-70 (Homo sapiens, UniProt P43403); experiment: Kinase inhibition assay (33P transfer), Zap-70; conditions: Table 3; read-out: Zap-1
T5 construct: Kinases are expressed as either kinase domains or full length constructs; made in house
T5 sequence (P43403 1-619): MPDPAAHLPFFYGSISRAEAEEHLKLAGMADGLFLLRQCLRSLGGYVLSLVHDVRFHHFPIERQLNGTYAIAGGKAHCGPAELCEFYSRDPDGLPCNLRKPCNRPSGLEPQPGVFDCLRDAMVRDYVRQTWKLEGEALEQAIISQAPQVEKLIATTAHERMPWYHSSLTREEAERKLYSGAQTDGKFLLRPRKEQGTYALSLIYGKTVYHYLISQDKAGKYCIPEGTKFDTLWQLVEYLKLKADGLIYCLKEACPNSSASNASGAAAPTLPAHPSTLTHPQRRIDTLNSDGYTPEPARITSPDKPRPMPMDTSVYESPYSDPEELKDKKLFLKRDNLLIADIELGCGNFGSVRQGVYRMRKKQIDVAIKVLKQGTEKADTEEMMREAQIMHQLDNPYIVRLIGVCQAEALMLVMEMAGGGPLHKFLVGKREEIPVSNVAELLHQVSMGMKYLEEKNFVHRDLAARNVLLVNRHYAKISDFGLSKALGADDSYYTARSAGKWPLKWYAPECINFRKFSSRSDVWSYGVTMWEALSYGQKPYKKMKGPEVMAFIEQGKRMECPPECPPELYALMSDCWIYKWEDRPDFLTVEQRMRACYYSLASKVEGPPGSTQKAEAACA
Summary of the method: as §1

Itk = biological target: T6, Itk (Homo sapiens, UniProt Q08881); experiment: Kinase inhibition assay (33P transfer), Itk; conditions: Table 3; read-out: Itk-1
T6 construct: Kinases are expressed as either kinase domains or full length constructs; made in house
T6 sequence (Q08881 1-620): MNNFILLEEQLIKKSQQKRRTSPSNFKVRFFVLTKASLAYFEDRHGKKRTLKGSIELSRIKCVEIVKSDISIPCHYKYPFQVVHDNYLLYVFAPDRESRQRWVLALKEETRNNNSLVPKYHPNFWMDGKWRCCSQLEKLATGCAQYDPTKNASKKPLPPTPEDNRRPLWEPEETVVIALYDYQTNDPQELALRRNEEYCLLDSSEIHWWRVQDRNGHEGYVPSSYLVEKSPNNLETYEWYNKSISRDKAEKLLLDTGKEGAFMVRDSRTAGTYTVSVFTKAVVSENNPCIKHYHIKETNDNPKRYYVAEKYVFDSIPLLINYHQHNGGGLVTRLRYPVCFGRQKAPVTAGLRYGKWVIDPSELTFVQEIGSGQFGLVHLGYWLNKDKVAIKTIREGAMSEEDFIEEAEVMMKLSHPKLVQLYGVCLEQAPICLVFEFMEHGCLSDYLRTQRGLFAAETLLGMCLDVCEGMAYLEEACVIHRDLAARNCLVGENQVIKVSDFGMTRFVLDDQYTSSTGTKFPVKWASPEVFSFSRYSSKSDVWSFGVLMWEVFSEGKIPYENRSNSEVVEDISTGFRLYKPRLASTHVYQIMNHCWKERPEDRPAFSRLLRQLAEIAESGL
Summary of the method: (§5)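 Read-out: scintillation counts of 33P moved from ATP onto synthetic peptide polymer coated on the well surface, after washing with 0.5% phosphoric acid. Enzymes were tagged (GST or polyHistidine) and came from bacterial or insect-cell expression. IC50 marks 50% loss of incorporated label.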

EGFR = biological target: T7, EGFR (Homo sapiens, UniProt P00533); experiment: Kinase inhibition assay (33P transfer), EGFR; conditions: Table 2, kinase inhibition class; read-out: EGFR-1
T7 construct: Kinases are expressed as either kinase domains or full length constructs; made in house
Summary of the method: as §5

Kdr = biological target: T8, Kdr (Homo sapiens, UniProt P35968); experiment: Kinase inhibition assay (33P transfer), Kdr; conditions: Table 3; read-out: KDR-1
T8 construct: Kinases are expressed as either kinase domains or full length constructs; made in house
Summary of the method: as §1

Flt-1 = biological target: T9, Flt-1 (Homo sapiens, UniProt P17948); experiment: Kinase inhibition assay (33P transfer), Flt-1
T9 construct: Kinases are expressed as either kinase domains or full length constructs; made in house
Text: as §2, §3, §4

Tek = biological target: T10, Tek (Homo sapiens, UniProt Q02763); experiment: Kinase inhibition assay (33P transfer), Tek; conditions: read-out: Tek-1
T10 construct: Kinases are expressed as either kinase domains or full length constructs; made in house
Summary of the method: as §5

c-Met = biological target: T11, c-Met (Homo sapiens, UniProt P08581); experiment: Kinase inhibition assay (33P transfer), c-Met; conditions: Table 2, kinase inhibition class; read-out: Met-1
T11 construct: Kinases are expressed as either kinase domains or full length constructs; made in house
Summary of the method: as §5

AKT = biological target: T12, AKT (Homo sapiens, UniProt Q9Y243); experiment: Kinase inhibition assay (33P transfer), AKT; conditions: Table 2, kinase inhibition class; read-out: AKT3-1
T12 construct: Kinases are expressed as either kinase domains or full length constructs; made in house
Summary of the method: as §1

PDGFRB = biological target: T13, PDGFRB (Homo sapiens, UniProt P09619); experiment: Kinase inhibition assay (33P transfer), PDGFRB; conditions: read-out: PDGFRB-1
T13 construct: Kinases are expressed as either kinase domains or full length constructs; made in house

Hck-1 = biological target: T14, Hck-1 (Homo sapiens, UniProt P08631); experiment: Kinase inhibition assay (33P transfer), Hck; conditions: Table 6, Hck-1 kinase inhibition class
T14 construct: Kinases are expressed as either kinase domains or full length constructs; made in house

ErbB4 = biological target: T15, ErbB4 (Homo sapiens, UniProt Q15303); experiment: Kinase inhibition assay (33P transfer), ErbB4; conditions: read-out: ErbB4-1
T15 construct: Kinases are expressed as either kinase domains or full length constructs; made in house

FGFR1 = biological target: T16, FGFR1 (Homo sapiens, UniProt P11362); experiment: Kinase inhibition assay (33P transfer), FGFR1; conditions: read-out: FGFR1-1
T16 construct: Kinases are expressed as either kinase domains or full length constructs; made in house
T16 sequence (P11362 22-822, species assumed): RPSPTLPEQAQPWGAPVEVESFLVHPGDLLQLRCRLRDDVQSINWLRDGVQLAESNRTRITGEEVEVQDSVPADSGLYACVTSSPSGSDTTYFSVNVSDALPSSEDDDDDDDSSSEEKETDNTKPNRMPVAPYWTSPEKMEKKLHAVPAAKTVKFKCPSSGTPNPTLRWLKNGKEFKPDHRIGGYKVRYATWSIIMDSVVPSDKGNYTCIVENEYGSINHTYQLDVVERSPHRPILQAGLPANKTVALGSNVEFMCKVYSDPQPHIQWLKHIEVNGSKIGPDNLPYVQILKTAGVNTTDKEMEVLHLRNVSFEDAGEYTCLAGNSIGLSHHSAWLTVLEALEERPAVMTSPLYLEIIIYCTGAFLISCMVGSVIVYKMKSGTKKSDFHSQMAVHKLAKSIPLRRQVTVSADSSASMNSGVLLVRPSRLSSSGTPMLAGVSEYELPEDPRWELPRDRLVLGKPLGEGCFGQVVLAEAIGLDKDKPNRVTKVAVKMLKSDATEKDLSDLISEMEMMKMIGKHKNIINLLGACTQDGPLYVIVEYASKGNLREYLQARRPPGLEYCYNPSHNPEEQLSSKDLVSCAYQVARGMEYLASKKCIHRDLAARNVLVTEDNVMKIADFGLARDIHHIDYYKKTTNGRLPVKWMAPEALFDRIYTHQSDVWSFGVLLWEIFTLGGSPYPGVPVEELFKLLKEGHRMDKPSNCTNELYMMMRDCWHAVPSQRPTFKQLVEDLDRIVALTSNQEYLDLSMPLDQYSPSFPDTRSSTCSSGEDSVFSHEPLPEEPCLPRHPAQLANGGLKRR

T9 sequence (P17948 27-1338, species assumed): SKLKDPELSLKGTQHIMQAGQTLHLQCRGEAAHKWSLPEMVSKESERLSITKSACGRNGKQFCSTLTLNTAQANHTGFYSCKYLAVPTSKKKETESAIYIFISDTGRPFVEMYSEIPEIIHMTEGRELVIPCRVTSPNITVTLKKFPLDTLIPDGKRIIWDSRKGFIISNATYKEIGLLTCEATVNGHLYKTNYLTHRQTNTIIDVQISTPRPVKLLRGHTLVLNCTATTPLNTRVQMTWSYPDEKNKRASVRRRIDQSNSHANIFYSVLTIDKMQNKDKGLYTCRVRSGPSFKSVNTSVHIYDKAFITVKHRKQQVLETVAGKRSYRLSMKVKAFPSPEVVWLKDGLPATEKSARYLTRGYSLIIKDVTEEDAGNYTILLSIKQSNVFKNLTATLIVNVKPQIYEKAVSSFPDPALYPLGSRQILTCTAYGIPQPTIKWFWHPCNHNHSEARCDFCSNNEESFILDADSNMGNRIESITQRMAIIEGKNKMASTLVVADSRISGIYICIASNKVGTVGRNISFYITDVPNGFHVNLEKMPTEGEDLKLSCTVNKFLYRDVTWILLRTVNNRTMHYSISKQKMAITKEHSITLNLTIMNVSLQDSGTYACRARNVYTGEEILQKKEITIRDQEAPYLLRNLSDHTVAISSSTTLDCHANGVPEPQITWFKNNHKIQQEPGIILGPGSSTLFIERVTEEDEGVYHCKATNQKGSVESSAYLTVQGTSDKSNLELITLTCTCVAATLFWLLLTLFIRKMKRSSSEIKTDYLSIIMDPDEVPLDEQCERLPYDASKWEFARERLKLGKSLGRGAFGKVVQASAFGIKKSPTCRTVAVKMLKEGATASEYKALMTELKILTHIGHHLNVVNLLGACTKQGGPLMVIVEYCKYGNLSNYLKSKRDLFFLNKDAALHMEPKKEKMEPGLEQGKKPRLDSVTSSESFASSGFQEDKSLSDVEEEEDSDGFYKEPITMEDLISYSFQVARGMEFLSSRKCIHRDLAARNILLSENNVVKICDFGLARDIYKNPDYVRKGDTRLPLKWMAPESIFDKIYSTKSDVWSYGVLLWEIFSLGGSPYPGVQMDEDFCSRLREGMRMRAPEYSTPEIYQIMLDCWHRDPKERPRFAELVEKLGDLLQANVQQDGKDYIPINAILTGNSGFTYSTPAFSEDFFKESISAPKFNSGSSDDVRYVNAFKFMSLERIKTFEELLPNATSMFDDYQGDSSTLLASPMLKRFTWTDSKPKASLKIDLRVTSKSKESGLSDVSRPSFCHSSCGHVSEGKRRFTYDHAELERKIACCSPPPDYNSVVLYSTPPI
T15 sequence (Q15303 26-1308, species assumed): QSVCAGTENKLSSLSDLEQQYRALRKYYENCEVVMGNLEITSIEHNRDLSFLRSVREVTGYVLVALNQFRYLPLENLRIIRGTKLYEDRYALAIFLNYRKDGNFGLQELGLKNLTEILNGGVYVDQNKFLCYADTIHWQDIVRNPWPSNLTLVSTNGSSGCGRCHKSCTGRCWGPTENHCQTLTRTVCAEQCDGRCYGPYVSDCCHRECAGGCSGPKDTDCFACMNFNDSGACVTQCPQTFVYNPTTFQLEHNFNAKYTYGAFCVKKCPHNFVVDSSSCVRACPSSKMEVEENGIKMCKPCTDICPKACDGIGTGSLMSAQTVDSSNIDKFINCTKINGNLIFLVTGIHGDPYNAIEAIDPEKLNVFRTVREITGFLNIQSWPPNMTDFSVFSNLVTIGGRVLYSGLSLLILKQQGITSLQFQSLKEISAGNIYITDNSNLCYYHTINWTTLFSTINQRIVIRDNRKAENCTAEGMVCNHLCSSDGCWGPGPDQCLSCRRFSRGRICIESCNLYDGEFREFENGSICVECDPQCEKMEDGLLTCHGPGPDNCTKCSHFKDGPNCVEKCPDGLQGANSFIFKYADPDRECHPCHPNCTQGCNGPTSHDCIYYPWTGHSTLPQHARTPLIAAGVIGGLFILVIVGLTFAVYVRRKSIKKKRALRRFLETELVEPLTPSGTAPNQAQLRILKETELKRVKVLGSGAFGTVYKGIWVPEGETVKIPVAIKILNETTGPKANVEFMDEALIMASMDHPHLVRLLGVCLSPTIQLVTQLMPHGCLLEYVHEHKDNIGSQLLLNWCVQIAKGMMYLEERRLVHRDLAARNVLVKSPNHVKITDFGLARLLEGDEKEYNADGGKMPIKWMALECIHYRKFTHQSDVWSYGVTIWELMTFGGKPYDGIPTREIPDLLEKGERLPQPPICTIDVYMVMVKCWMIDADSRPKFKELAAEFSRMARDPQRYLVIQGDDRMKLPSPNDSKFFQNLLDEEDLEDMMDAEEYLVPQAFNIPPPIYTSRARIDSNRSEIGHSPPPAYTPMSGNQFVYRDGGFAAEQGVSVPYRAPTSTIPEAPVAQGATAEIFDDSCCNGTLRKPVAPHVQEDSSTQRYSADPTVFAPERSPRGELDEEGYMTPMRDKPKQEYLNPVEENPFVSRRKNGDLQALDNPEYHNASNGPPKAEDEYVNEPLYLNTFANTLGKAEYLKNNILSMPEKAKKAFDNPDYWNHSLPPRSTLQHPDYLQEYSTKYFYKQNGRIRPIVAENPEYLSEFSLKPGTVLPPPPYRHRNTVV
T3 sequence (P12931 whole entry, species assumed, the tested form may be a part): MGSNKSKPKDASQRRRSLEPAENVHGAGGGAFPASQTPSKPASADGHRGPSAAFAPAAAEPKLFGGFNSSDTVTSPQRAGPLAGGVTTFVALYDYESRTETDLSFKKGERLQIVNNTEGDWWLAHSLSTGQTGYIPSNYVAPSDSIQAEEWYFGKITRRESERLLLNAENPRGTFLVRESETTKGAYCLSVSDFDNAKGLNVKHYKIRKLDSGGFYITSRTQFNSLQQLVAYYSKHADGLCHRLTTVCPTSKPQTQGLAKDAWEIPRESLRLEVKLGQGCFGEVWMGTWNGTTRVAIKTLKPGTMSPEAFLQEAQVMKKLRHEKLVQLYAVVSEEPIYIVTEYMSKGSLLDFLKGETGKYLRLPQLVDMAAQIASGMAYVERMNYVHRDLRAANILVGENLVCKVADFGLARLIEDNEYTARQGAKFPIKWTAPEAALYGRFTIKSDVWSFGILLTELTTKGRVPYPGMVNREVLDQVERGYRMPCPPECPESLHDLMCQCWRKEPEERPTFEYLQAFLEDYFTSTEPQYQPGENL
T1 sequence (P06239 whole entry, species assumed, the tested form may be a part): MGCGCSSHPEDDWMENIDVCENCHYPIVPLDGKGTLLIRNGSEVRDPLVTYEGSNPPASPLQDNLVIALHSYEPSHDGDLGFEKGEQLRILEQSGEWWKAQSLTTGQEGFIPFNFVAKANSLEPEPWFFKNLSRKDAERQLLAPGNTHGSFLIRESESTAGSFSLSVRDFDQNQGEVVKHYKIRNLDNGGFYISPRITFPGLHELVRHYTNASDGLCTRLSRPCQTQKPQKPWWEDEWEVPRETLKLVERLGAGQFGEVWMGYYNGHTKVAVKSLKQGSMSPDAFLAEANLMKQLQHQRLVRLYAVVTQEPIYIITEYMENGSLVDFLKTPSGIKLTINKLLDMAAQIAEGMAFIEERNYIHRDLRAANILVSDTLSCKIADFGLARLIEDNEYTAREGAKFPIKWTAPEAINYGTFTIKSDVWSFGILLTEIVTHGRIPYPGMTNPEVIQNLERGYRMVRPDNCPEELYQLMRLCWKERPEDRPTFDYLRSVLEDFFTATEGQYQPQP
T4 sequence (P06241 whole entry, species assumed, the tested form may be a part): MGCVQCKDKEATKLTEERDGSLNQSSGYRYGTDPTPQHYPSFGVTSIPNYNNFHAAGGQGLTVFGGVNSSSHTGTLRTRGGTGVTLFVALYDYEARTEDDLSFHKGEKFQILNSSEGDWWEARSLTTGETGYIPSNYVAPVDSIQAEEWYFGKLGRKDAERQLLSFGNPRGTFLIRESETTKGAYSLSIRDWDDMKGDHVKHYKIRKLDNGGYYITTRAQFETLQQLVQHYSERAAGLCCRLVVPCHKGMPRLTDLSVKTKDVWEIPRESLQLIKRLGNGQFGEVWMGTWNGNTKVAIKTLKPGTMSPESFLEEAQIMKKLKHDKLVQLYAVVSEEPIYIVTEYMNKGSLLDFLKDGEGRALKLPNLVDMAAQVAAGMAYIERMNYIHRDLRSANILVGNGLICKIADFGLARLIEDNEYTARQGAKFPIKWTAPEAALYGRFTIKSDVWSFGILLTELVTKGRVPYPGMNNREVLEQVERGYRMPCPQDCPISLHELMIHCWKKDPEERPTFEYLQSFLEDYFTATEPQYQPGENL

| SMILES | IC50 (Lck) [µM] | IC50 (Lyn) [µM] | IC50 (Src) [µM] | IC50 (Fyn) [µM] | IC50 (Zap-70) [µM] | IC50 (Itk) [µM] | IC50 (EGFR) [µM] | IC50 (Kdr) [µM] | IC50 (Flt-1) [µM] | IC50 (Tek) [µM] | IC50 (c-Met) [µM] | IC50 (AKT) [µM] | IC50 (PDGFRB) [µM] | IC50 (Hck-1) [µM] | IC50 (ErbB4) [µM] | IC50 (FGFR1) [µM] |
| --- | --- | --- | --- | --- | --- | --- | --- | --- | --- | --- | --- | --- | --- | --- | --- | --- |
| COc1cc(Nc2ncnc(-n3cc(CCO)c4ccccc43)n2)cc(OC)c1OC [Compound 463] | > 10.7 | 0.949 to 5.69 | 0.949 to 5.69 | < 0.949 | > 10.7 | > 10.7 | > 10.7 | < 0.949 | < 0.949 | > 10.7 | > 10.7 | > 10.7 | < 0.949 | > 10.7 | > 10.7 | < 0.949 |
| CCOC(=O)Cc1cn(-c2ncnc(Nc3cc(OC)c(OC)c(OC)c3)n2)c2ccccc12 [Compound 411] | 7.55 to 9.71 | 0.863 to 5.18 | 0.863 to 5.18 | > 9.71 | > 9.71 | > 9.71 | > 9.71 | < 0.863 | 0.863 to 5.18 | > 9.71 | < 0.863 | > 9.71 | < 0.863 | > 9.71 | > 9.71 | < 0.863 |
| OCc1cccc(Nc2ncnc(Nc3cc(-c4ccco4)n[nH]3)n2)c1 [Compound 429] | 1.14 to 6.87 | < 1.14 | < 1.14 | 1.14 to 6.87 | > 12.9 | 1.14 to 6.87 | 1.14 to 6.87 | < 1.14 | < 1.14 | 10 to 12.9 | < 1.14 | 1.14 to 6.87 | < 1.14 | > 12.9 | 1.14 to 6.87 | < 1.14 |
| COc1cc(Nc2ncnc(-n3c(NCC(C)C)nc4ccccc43)n2)cc(OC)c1OC [Compound 407] | < 0.89 | < 0.89 | < 0.89 | < 0.89 | > 10 | > 10 | > 10 | < 0.89 | < 0.89 | > 10 | > 10 | > 10 | < 0.89 | > 10 | > 10 | < 0.89 |
| OCc1ccc(Nc2ncnc(Nc3cc(-c4ccco4)n[nH]3)n2)cc1 [Compound 430] | 1.14 to 6.87 | 1.14 to 6.87 | 1.14 to 6.87 | 1.14 to 6.87 | > 12.9 | 1.14 to 6.87 | 1.14 to 6.87 | < 1.14 | 1.14 to 6.87 | 1.14 to 6.87 | 1.14 to 6.87 | 1.14 to 6.87 | 1.14 to 6.87 | > 12.9 | 1.14 to 6.87 | < 1.14 |
| CC(=O)NCc1ccc(Nc2ncnc(Nc3cc(-c4ccco4)n[nH]3)n2)cc1 [Compound 443] | > 11.5 | 1.02 to 6.15 | 6.15 to 8.97 | 6.15 to 8.97 | > 11.5 | 1.02 to 6.15 | 1.02 to 6.15 | < 1.02 | 1.02 to 6.15 | > 11.5 | 1.02 to 6.15 | > 11.5 | 1.02 to 6.15 | > 11.5 | 1.02 to 6.15 | 1.02 to 6.15 |
| COc1ccc(Nc2nc3ccccc3n2-c2ncnc(Nc3cc(OC)c(OC)c(OC)c3)n2)cc1OC [Compound 400] | > 8.5 | > 8.5 | > 8.5 | > 8.5 | > 8.5 | > 8.5 | > 8.5 | < 0.755 | 0.755 to 4.53 | > 8.5 | > 8.5 | > 8.5 | > 8.5 | > 8.5 | > 8.5 | > 8.5 |
| CC(=O)NS(=O)(=O)c1ccc(Nc2ncnc(-n3c(N)nc4ccccc43)n2)cc1 [Compound 440] | 0.942 to 5.65 | 5.65 to 8.25 | > 10.6 | 0.942 to 5.65 | 0.942 to 5.65 | 8.25 to 10.6 | 0.942 to 5.65 | 0.942 to 5.65 | 0.942 to 5.65 | 5.65 to 8.25 | 0.942 to 5.65 | > 10.6 | 0.942 to 5.65 | 5.65 to 8.25 | 0.942 to 5.65 | 0.942 to 5.65 |
| COc1cc(Nc2ncnc(-n3c(NCc4cccnc4)nc4ccccc43)n2)cc(OC)c1OC [Compound 416] | 0.826 to 4.95 | 0.826 to 4.95 | 4.95 to 7.22 | 7.22 to 9.29 | > 9.29 | > 9.29 | > 9.29 | < 0.826 | 0.826 to 4.95 | > 9.29 | > 9.29 | > 9.29 | < 0.826 | > 9.29 | > 9.29 | < 0.826 |
| COc1cc(Nc2ncnc(-n3ccc4cc(O)ccc43)n2)cc(OC)c1OC [Compound 202] | < 1.02 | < 1.02 | < 1.02 | < 1.02 | > 11.4 | < 1.02 | > 11.4 | < 1.02 | < 1.02 | 6.1 to 8.9 | 1.02 to 6.1 | 8.9 to 11.4 | < 1.02 | > 11.4 | 1.02 to 6.1 | < 1.02 |
